In publication PMC7999182, “Interaction of Remdesivir with Clinically Relevant Hepatic Drug Uptake Transporters” (Pharmaceutics, 2021):

What was measured:
OATP1B3 [1] = target: T1, OATP1B3 (Homo sapiens, UniProt Q9NPD5); assay: Remdesivir uptake into HEK cells stably expressing OATP1B3 vs vector control; assay type: in vitro ADME; conditions: 5 µM remdesivir, 10 min, transporter-expressing vs control HEK cells
T1 construct: expressed in transfected cells
T1 sequence (Q9NPD5 1-702): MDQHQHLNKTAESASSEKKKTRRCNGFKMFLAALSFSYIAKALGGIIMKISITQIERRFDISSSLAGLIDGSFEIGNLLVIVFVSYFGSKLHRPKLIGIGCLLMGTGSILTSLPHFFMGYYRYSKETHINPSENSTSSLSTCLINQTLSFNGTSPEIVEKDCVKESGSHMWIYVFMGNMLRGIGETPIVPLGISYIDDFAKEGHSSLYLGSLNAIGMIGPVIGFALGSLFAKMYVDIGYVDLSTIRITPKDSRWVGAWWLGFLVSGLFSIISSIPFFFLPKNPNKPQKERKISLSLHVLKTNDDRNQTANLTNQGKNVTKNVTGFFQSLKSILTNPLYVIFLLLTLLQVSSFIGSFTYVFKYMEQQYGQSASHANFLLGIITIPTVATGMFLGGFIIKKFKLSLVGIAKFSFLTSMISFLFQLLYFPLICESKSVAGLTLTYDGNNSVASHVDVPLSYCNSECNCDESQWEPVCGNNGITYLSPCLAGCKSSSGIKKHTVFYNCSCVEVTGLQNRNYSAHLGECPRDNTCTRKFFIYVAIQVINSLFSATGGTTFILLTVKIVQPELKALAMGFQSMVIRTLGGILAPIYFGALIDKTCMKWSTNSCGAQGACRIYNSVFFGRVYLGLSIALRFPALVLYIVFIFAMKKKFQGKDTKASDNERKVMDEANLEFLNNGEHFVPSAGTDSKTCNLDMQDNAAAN
Text: (§1) Generation, cultivation and characterization of human embryonic kidney (HEK) cells stably expressing OATP1B1 refseq (=OATP1B1*1a), OATP1B1*1b, OATP1B1*5 and OATP1B1*15 [18], OATP1B3 [19], OATP2B1 [13] and OCT1 [20] have been described previously. OATP1B1 cells were cultivated in minimal essential medium (Life Technologies, Paisley, UK) and OATP1B3, OATP2B1 and OCT1 cells were cultivated in Dulbecco’s modified Eagle medium (Sigma, Darmstadt, Germany). Cultivation media were supplemented with 10% fetal calf serum, 100 U/mL penicillin and 100 µg/mL streptomycin. Cells were grown at 37 °C and 5% CO2. Functionality of the cells was confirmed by measuring uptake of prototypic substrates (see Section 2.3 and supplementary material).
Uptake assays were conducted at 37 °C according to previously described methods. For this, cells were seeded in 24-well plates (320,000 cells/well) and cultured for 2 days. Cells were then incubated for a further 24 h in culture medium with 5 mM butyrate (OATP1B3, OATP2B1, OCT1) or 10 mM butyrate (OATP1B1) to increase protein levels of recombinant transporters. […]
Remdesivir was determined by UHPLC-MS-MS analysis on an Agilent 1290 infinity UHPLC system coupled to an Agilent 6495B triple quadrupole mass spectrometer (Agilent, Waldbronn, Germany) similar to a recently published method. […]

OATP1B3 [2] = target: T1, OATP1B3; assay: Inhibition of OATP1B3-mediated estradiol glucuronide uptake; assay type: cell-based
Text: as §1
Prototypic substrate uptake was performed as described previously. For this, uptake solutions contained the respective substrate with tracer amounts of radiolabeled substrate. In case of inhibition studies, uptake solutions additionally contained different concentrations of remdesivir. […] Cells were then lysed with 0.2% sodium dodecyl sulfate and intracellular radioactivity was measured by liquid scintillation counting (Tricarb2800, PerkinElmer Life Sciences GmbH, Rodgau, Germany or Hidex 300SL TDCR liquid scintillation counter, Turku, Finland). […]

OATP1B1 = tested on: OATP1B1; set-up: method as in earlier work; conditions: prototypic substrate not stated; cited from earlier work

CCC(CC)COC(=O)[C@H](C)N[P@](=O)(OC[C@H]1O[C@@](C#N)(c2ccc3c(N)ncnn23)[C@H](O)[C@@H]1O)Oc1ccccc1 [Remdesivir]
Remdesivir uptake ratio (OATP1B3 [1]): 1.5
Effect on prototypic substrate uptake (OATP1B3 [2]; 5 µM estradiol glucuronide, 5 min uptake, different remdesivir concentrations): significant concentration-dependent inhibitory effect
Transporter inhibition at 10 µM (OATP1B3 [2]; 10 µM remdesivir, estradiol glucuronide as substrate): inhibition
IC50 (OATP1B1): 2.8 µM
